To fix the notation:
T1: DmUCP4A (Drosophila melanogaster, UniProt Q9VX14)
T1 construct: gene Ucp4A
T1 sequence (Q9VX14 1-340): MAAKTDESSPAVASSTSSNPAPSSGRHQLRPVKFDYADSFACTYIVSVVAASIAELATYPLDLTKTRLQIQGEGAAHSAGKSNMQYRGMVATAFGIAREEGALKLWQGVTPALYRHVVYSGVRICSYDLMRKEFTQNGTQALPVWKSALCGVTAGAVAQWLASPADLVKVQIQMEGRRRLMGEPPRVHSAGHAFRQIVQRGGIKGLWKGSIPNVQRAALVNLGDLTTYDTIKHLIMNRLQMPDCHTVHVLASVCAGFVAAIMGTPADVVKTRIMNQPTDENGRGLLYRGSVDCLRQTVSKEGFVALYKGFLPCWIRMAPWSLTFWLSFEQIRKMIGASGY

B1: DmUCP4A (Drosophila melanogaster) (protein)
chain: MAAKTDESSPAVASSTSSNPAPSSGRHQLRPVKFDYADSFACTYIVSVVAASIAELATYPLDLTKTRLQIQGEGAAHSAGKSNMQYRGMVATAFGIAREEGALKLWQGVTPALYRHVVYSGVRICSYDLMRKEFTQNGTQALPVWKSALCGVTAGAVAQWLASPADLVKVQIQMEGRRRLMGEPPRVHSAGHAFRQIVQRGGIKGLWKGSIPNVQRAALVNLGDLTTYDTIKHLIMNRLQMPDCHTVHVLASVCAGFVAAIMGTPADVVKTRIMNQPTDENGRGLLYRGSVDCLRQTVSKEGFVALYKGFLPCWIRMAPWSLTFWLSFEQIRKMIGASGY

The target in one data set is T1, DmUCP4A. The data set can be described thus: inhibition of […]aspartate/aspartate exchange in proteoliposomes. It counts as biochemical. The settings on record: 0.3 mM external [14C]aspartate, 10 mM internal aspartate, pH 6.5, 25 °C, 1 min.
`N[C@@H](CS(=O)O)C(=O)O` [cysteine sulfinate]: the “% inhibition at 10 mM” value was “to a much lower extent by oxalate, maleate, 2-oxoglutarate, and cysteine sulfinate”.

For the molecule `O=C(O)/C=C\C(=O)O` [maleate], the “% inhibition at 10 mM” value was “to a much lower extent by oxalate, maleate, 2-oxoglutarate, and cysteine sulfinate”. `O=C(O)CCC(=O)C(=O)O` [2-oxoglutarate]: the “% inhibition at 10 mM” value is “to a much lower extent by oxalate, maleate, 2-oxoglutarate, and cysteine sulfinate”. Still for that read-out and setting: to `CCCCC(C(=O)O)C(=O)O` [butylmalonate] belongs “butylmalonate, and phenylsuccinate”; to `O=C(O)CC(C(=O)O)c1ccccc1` (stereo not drawn) [phenylsuccinate], “butylmalonate, and phenylsuccinate”. Same read-out and setting: the same measure for `Cc1ncc(COP(=O)(O)O)c(C=O)c1O` [pyridoxal-5′-phosphate]: “The activity of DmUCP4A was strongly inhibited by BAT, PLP, and tannic acid”; for `c1ccc(-c2ccnc3c2ccc2c(-c4ccccc4)ccnc23)cc1` [bathophenanthroline]: “The activity of DmUCP4A was strongly inhibited by BAT, PLP, and tannic acid”.

Staying with this data set, now noted: 0.3 mM external [14C]aspartate, 10 mM internal aspartate, pH 6.5, 25 °C, 1 min; added externally with labelled aspartate as potential competitor.
In the case of `O=C(O)C(=O)O` [oxalate], the “% inhibition at 10 mM” value was “to a much lower extent by oxalate, maleate, 2-oxoglutarate, and cysteine sulfinate”.

Substrate in the next data set: N[C@@H](CC(=O)O)C(=O)O
The data set can be described thus: purified protein. As to conditions: aspartate/aspartate exchange, 10 mM internal aspartate, pH 6.5, 25 °C, labelled compound.
On to B1, for which the Km – broadly, the concentration of substrate that gives half-maximal velocity – stood at 229.2 ± 12.64 µM.

Source of the values: PMC8834685 (International Journal of Molecular Sciences, 2022).
